# Source: ChEMBL document CHEMBL3507680, “University of Dundee, Gates Library screen for HepG2 cell viability”
# Experiment: Human HepG2 cell viability assay in 384 well format
# Type: toxicity, cell-based
# Set-up: dose 125 nL, time 70.5 hour; cytotoxicity at 70.5 h: concentration not given beside the values
# Settings: HepG2 cells, read-out: Inhibition
row,Structure (SMILES),cytotoxicity at 70.5 h [%]
1,COc1ccc(CNC(C)c2ccc(Cl)c(Cl)c2)c(OC)c1OC (configuration not stated),5.68
2,Cc1cccc(C(=O)N2C[C@@H]3OCCN(C(C)C)[C@@H]3C2)n1,-0.427
3,COc1cccc(-n2c(C)cc(C(=O)O)c2C)c1,-5.75
4,CCC1CN(CC(=O)N2CCN(C(C)=O)CC2)CCN1CCOC (configuration not stated),-7.53
5,COc1ccccc1C(NC(=O)CN(C)C(C)C)c1noc(C)n1 (configuration not stated),-2.25
6,O=C(c1cnc(O)c(Cl)c1)N1CCCC(c2nccs2)C1 (configuration not stated),6.3
7,O=C(CCc1nc2cccnc2[nH]1)NCc1ccc2c(c1)OCO2,-9.32
8,CN1CCCC(Cc2nccnc2Cl)CC1 (configuration not stated),-3.4
9,Cc1cnc2n(c1=O)C(CC(=O)NCc1cccs1)CS2 (configuration not stated),0.951
10,Cc1nccn1C1CCCN(C(=O)c2cccc3c2OCO3)C1 (configuration not stated),-9.12
11,O=c1[nH]c2c(-c3ccccn3)nsc2c(=O)n1CC1CC1,-14.6
12,CC(C)c1cc(NCC(O)c2ccccn2)n2nccc2n1 (configuration not stated),-8.96
13,O=C(Nc1nccs1)NC1CCN(Cc2ccccn2)CC1,-12.4
14,N#Cc1cccc(-c2ncnn2CC2(O)CCCCC2)c1,-3.16
15,Cc1ccc(C(=O)N2CCC(=O)N(CC3CC3)C(C(C)C)C2)c(=O)[nH]1 (configuration not stated),4.74
16,CCc1noc(CNc2cc(F)ccc2OCC2CCCO2)n1 (configuration not stated),-6.07
17,Cc1ncsc1C(=O)NCCSCCCO,9.95
18,CN(C)S(=O)(=O)N1C[C@@H]2CC[C@H](C1)N(Cc1ccc3[nH]ccc3c1)C2,-5.61
19,COc1ccc(NC(=O)C2CCOC2)c(N2CCN(C(C)=O)CC2)n1 (configuration not stated),4.61
20,CN(c1ccc(F)c(F)c1)S(=O)(=O)c1cc(C(=O)O)cs1,-6.55
21,CCc1cnc(C)nc1N1CCS(=O)(=O)CC1,-7.02
22,CN(Cc1csc(-c2ccccc2)n1)C(=O)CCn1ccccc1=O,-0.921
23,Cc1noc(C)c1C(=O)N1CCCC1c1c(C)nn(C)c1C (configuration not stated),-8.88

row,Structure (SMILES),cytotoxicity at 70.5 h [%]
1,CN1CC(=O)N(C2CCC2)Cc2c(NC3CCNCC3)ncnc21,-3.78
2,Cc1cccc(C(C)C)c1NC(=O)NCCN(C(C)C)C(C)C,-4.96
3,CC(C)[C@]1(O)CN(C(=O)COCC(N)=O)C[C@H]1C,23.2
4,O=C(NCCNS(=O)(=O)c1cccc(Cl)c1)C1CCCO1 (configuration not stated),6.97
5,Cc1cnn(CC(C)NCc2cccnc2)c1 (configuration not stated),-5.07
6,CCn1ccnc1CN1CCN(C(C)C(=O)N2CCC(C)CC2)CC1 (configuration not stated),3.72
7,Cc1ccc(C(C)N(C)Cc2nc3c(cnn3C)c(=O)[nH]2)s1 (configuration not stated),-8.32
8,Cc1nnc([C@H]2C[C@@H]3CCN(Cc4cc(C)on4)C[C@H]3O2)[nH]1,-4.17
9,CC(C)N(C)S(=O)(=O)c1ccc2c(c1)CCN(C(=O)c1cccnn1)C2,-13.5
10,Cc1nc(CN2CCN(C(=O)CCc3cccc(Cl)c3)CC2)no1,13.5
11,CC1CN(C)c2ccccc2CN1C(=O)c1ccoc1 (configuration not stated),10
12,CC(C)Cn1ccnc1CNC(=O)NC(C)c1nccs1 (configuration not stated),1.43
13,CNC(=O)c1cc2c(nc1NCC(C)C)CCN(CCOC)CC2,4.78
14,CCCC(=O)N(CCN1CCOCC1)c1nc2c(OC)ccc(C)c2s1,-7.03
15,COc1ccc(S(=O)(=O)NCCCc2ccc(N(C)C)cc2)cc1Cl,-3.09
16,Cn1ccc(C(=O)NC2CCC23CCN(CC2CCOCC2)CC3)c1 (configuration not stated),3.91
17,CC(C)c1noc(C2CCCN2C(=O)CN2CCc3ccccc32)n1 (configuration not stated),23.7
18,OCc1ccc(OCC(F)(F)F)cc1,-8.76
19,c1cncc(Cc2nnc3n2CCN(CC2CCOC2)CC3)c1 (configuration not stated),-10.7
20,CC1(C)Cc2ccccc2-c2nc(NCCCO)[nH]c(=O)c21,-3.41
21,CCN(CC)C(=O)[C@@H]1C[C@H](n2cc(-c3cccc(OC)c3)nn2)CN1,-3.79
22,Cc1[nH]c2ccc(CNC(=O)c3ccc(CN4CCCC4)o3)cc2c1C,-7.28
23,Cc1cc(C)n(C2CCCN(C(=O)CN(C)C3CC3)C2)n1 (configuration not stated),-3.88

row,Structure (SMILES),cytotoxicity at 70.5 h [%]
1,Cc1cnn(CC2CCCCN2CC(=O)Nc2nc(C)cs2)c1 (configuration not stated),-2.94
2,Cc1nsc(NC2CCOC3(CCCC3)C2)n1 (configuration not stated),-1.21
3,C[C@@H](O)CNC(=O)c1nc(CC(=O)Nc2cccc(C(F)(F)F)c2)no1,-23.7
4,COc1ccc(C)cc1-n1c(COC(C)C)n[nH]c1=O,-18.9
5,CC(C)C(C(=O)NC1CC1)n1cnc2cc(F)c(F)cc21 (configuration not stated),-0.654
6,CC(C)Cc1nc(NC(=O)c2cc(-c3cccnc3)n[nH]2)n[nH]1,-5.07
7,COc1ccc(C)c2c1N(C(=O)c1cnc3onc(C)c3c1)CCC2,2.65
8,CC(NC(=O)Cn1ccc(=O)n(C)c1=O)c1ccccc1F (configuration not stated),-5.75
9,O=C(O)CCC(=O)N1CCC(c2noc3cc(F)ccc23)CC1,-10.8
10,CCC(NC(=O)c1ccc2[nH]ccc2c1)C(=O)N1CCOCC1 (configuration not stated),6.49
11,COc1cc2c(cc1CNCc1ccnc(-n3cccn3)c1)OC(C)C2 (configuration not stated),-12.6
12,CCN(CC)CC[C@H]1CN(C(=O)CC(C)(C)C)CC[C@H]1CC(=O)O,-4.24
13,CC1CCCN(C(=O)c2ccc(N(C)Cc3cnn(C)c3)nc2)C1 (configuration not stated),20.1
14,Cc1nn(C)c(N2CCOCC2)c1CNCc1ccc(N(C)C)nc1,15.7
15,CCc1cc2c(N3CCCC(c4cc(C(N)=O)[nH]n4)C3)ncnc2s1 (configuration not stated),-4.85
16,CSCC(CCO)Nc1nc(C(F)F)nc2ccccc12 (configuration not stated),-7.1
17,Cc1ccc2c(c1)OCCCC2NCc1nccn1CC(C)C (configuration not stated),-7.28
18,Cc1nnc(C(C)N2CCc3[nH]c4ccc(Cl)cc4c3C2)o1 (configuration not stated),-4.39
19,O=C(c1ccnnc1)N1C[C@@H](OCc2cccnc2)[C@H]2OCCC[C@H]21,27.3
20,CC(O)CN1CCN(C(=O)c2cnn(-c3ccc(Cl)cc3)c2)CC1 (configuration not stated),-5.02
21,CN1CCN(C(=O)c2cccn2C)Cc2cccnc21,-4.65
22,COC(=O)c1cc(NCC(=O)NC(N)=O)cc(C(F)(F)F)c1,0.625
23,Cc1ccoc1C(=O)N1CCO[C@H]2[C@H](OCc3ccncc3)CC[C@@H]21,-0.105

row,Structure (SMILES),cytotoxicity at 70.5 h [%]
1,COCCO[C@@H]1CCN(c2cc(OC)ncn2)[C@H]1Cc1cnn(C)c1,-4.31
2,OCc1csc(N2CCCC(CO)(Cc3cccc(Cl)c3)C2)n1 (configuration not stated),12.4
3,O=C(NCCNc1ncccn1)c1ccc(OCc2ccccc2)nc1,-13.5
4,CNC(=O)Cc1n[nH]c(-c2cncc(Br)c2)n1,27.1
5,CC(C)(C)c1noc(CNc2ccccc2N2CCC(O)CC2)n1,-8.28
6,O=C(Cc1cccs1)N1CCCC(CNS(=O)(=O)Cc2ccccc2)C1 (configuration not stated),-5.58
7,CC(=O)N1CC[C@H]2OCC[C@@H](C(=O)Nc3cccnc3C)[C@@H]2C1,-5.24
8,CN1[C@H](Cn2cccn2)C[C@@H]2CN(C(=O)Cc3cccs3)CC[C@@H]21,24.7
9,Cc1cc(CN2CCN(C(=O)c3sccc3C3CC3)CC2)no1,-7.26
10,Cc1ncsc1CCC(=O)NCc1csc(N(C)C)n1,-1.1
11,Cc1nn(Cn2ccc(C(=O)N3CCCCCC3)n2)c(C)c1Cl,-11.3
12,Cc1cc(C(=O)N2CCN(C)CC2)nn1CC(=O)NCc1ccccn1,-8.07
13,CCN(C(=O)NCc1ncc(C)c(OC)c1C)C(C)c1cccnc1 (configuration not stated),-9.02
14,Cc1cn([C@@H]2CC3(CCNCC3)OC[C@@]2(C)O)c(=O)[nH]c1=O,0.487
15,CCC1=N[C@@]2(CC[C@@H]3CN(Cc4cccc(Cl)c4)C[C@@H]32)C(=O)N1C,16.7
16,COc1ccc(C2Nc3cc(Cl)ccc3C3=NCCN32)cc1CO (configuration not stated),9.73
17,CC(C)c1nccn1CCCNC(=O)c1ccc(-c2cncnc2)nc1,-9.84
18,Cc1cc(=O)n2nc(Oc3cccc(I)c3)sc2n1,-20.9
19,CN(CC1CCN(c2ccccc2)C1)c1ccc(Cn2ccnc2)cn1 (configuration not stated),-13.6
20,Cc1ccc(CN2CCN(C3CSCCSC3)CC2CCO)o1 (configuration not stated),-6.76
21,CCc1nc(CN2CCOC(Cn3nc(C)cc3C)C2)no1 (configuration not stated),38.2
22,COc1ccc([C@@H]2CN(Cc3ccncc3)C[C@H]2c2cc[nH]n2)cc1,-7.91
23,CCC(CC)c1cc(CNC(=O)N2CCC(n3cncn3)CC2)on1,-1.7

row,Structure (SMILES),cytotoxicity at 70.5 h [%]
1,CC(C)c1nc(CN(C)C(=O)[C@H](N)Cc2ccc(Cl)cc2)cs1,2.45
2,COCCn1cc2c(n1)C(CNCc1nccs1)OCC2 (configuration not stated),-2.52
3,Cc1nc(CN(C)Cc2cc3c(cc2OC(F)F)OCO3)oc1C,4.89
4,Cc1nc(C(=O)N2CCN(C(=O)N(C)C)[C@@H]3CS(=O)(=O)C[C@@H]32)cs1,-5.31
5,Cc1nn(C)c(Cl)c1C1CCCN1CC(=O)NCc1ccccn1 (configuration not stated),-7.66
6,O=C(Cc1cccc(O)c1)N1CCCC(OCc2cccnc2)C1 (configuration not stated),-7.55
7,CCC(CC)c1cc(C(=O)N2CCN(CC(N)=O)CC2)on1,-6.02
8,O=C(CN1CCc2cncnc2C1)NCCOc1ccccc1,-5.53
9,CC(C)n1ccnc1CNC(=O)c1cccc(CCC(C)(C)O)c1,-10.5
10,CC1N(C)C(=O)COC12CCN(Cc1ccsc1)CC2 (configuration not stated),4.85
11,CCOc1ccccc1OCCN(C)Cc1ncnn1CC,-6.09
12,O=C(Nc1nc2c(s1)CN(S(=O)(=O)C1CC1)CC2)Nc1ccccc1F,23.7
13,Nc1nnc(SCc2cc(=O)n3c4c(sc3n2)CCCC4)s1,-8.05
14,COCc1ncc(CN2CCN(C)C(=O)C2C)cn1 (configuration not stated),-13.5
15,O=C1CC[C@H]2[C@H](CCN2C(=O)C2CCOC2)N1Cc1ccncc1 (some centres not stated),-20.6
16,COCCn1cc(C(=O)N2CCCC2c2ccc(F)cc2)ccc1=O (configuration not stated),-1.67
17,Cn1cnnc1SCc1cc2c(cc1Cl)OCO2,-20.6
18,CC(C)[C@H](N)C(=O)N1CCCC(C2=Nc3ccccc3S(=O)(=O)N2)C1 (some centres not stated),-9.78
19,CC1CCc2n[nH]c(C(=O)NCCCc3ccccn3)c2C1 (configuration not stated),-7.91
20,COc1cccc2c1OCC(CNC(=O)CN(C)C1CCCC1)C2 (configuration not stated),6.99
